Patent US10696655B2, “Therapeutic compounds and uses thereof” (GENENTECH, INC., priority 2017, dated 2020)
pIC50: −log10 of the molar value.

Columns and labels:
CBP = CBP (Homo sapiens (Human), UniProt Q92793); experiment: CBP TR-FRET binding assay; conditions: His/Flag tagged CBP 4 nM, biotin-ligand 60 nM; read-out: CBP HTRF IC50;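 also: displacement of a biotinylated small-molecule ligand from purified recombinant CBP read by TR-FRET, DMSO-only wells as control, IC50 from nonlinear curve fit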
Experimental: IC50 Measurements for Inhibitors Using CBP TR FRET Binding Assay
His/Flag epitope tagged CBP was cloned, expressed, and purified to homogeneity. CBP binding and inhibition was assessed by monitoring the engagement of a biotinylated small molecule compound with the target using the TR-FRET assay technology (Perkin-Elmer). Specifically, in a 384 well ProxiPlate CBP (4 nM final) was combined with biotin-ligand (60 nM final) in 50 mM HEPES (pH 7.5), 50 mM NaCl, 1 mM TCEP, 0.01% (w/v) BSA, and 0.008% (w/v) Brij-35 either in the presence of DMSO (final 0.2% DMSO) or compound dilution series in DMSO. […] After twenty minutes of equilibration, the plates were read on an Envision instrument and IC50S calculated using a four parameter non-linear curve fit.

MYC = MYC RPL19 QuantiGene assay in MV-4-11 cells; type: cell-based; conditions: Homo sapiens, MV4-11, compound 4 hours
Source text: MYC RPL19 QuantiGene assay in MV-4-11 Cells

Chain of CBP (Q92793 whole entry): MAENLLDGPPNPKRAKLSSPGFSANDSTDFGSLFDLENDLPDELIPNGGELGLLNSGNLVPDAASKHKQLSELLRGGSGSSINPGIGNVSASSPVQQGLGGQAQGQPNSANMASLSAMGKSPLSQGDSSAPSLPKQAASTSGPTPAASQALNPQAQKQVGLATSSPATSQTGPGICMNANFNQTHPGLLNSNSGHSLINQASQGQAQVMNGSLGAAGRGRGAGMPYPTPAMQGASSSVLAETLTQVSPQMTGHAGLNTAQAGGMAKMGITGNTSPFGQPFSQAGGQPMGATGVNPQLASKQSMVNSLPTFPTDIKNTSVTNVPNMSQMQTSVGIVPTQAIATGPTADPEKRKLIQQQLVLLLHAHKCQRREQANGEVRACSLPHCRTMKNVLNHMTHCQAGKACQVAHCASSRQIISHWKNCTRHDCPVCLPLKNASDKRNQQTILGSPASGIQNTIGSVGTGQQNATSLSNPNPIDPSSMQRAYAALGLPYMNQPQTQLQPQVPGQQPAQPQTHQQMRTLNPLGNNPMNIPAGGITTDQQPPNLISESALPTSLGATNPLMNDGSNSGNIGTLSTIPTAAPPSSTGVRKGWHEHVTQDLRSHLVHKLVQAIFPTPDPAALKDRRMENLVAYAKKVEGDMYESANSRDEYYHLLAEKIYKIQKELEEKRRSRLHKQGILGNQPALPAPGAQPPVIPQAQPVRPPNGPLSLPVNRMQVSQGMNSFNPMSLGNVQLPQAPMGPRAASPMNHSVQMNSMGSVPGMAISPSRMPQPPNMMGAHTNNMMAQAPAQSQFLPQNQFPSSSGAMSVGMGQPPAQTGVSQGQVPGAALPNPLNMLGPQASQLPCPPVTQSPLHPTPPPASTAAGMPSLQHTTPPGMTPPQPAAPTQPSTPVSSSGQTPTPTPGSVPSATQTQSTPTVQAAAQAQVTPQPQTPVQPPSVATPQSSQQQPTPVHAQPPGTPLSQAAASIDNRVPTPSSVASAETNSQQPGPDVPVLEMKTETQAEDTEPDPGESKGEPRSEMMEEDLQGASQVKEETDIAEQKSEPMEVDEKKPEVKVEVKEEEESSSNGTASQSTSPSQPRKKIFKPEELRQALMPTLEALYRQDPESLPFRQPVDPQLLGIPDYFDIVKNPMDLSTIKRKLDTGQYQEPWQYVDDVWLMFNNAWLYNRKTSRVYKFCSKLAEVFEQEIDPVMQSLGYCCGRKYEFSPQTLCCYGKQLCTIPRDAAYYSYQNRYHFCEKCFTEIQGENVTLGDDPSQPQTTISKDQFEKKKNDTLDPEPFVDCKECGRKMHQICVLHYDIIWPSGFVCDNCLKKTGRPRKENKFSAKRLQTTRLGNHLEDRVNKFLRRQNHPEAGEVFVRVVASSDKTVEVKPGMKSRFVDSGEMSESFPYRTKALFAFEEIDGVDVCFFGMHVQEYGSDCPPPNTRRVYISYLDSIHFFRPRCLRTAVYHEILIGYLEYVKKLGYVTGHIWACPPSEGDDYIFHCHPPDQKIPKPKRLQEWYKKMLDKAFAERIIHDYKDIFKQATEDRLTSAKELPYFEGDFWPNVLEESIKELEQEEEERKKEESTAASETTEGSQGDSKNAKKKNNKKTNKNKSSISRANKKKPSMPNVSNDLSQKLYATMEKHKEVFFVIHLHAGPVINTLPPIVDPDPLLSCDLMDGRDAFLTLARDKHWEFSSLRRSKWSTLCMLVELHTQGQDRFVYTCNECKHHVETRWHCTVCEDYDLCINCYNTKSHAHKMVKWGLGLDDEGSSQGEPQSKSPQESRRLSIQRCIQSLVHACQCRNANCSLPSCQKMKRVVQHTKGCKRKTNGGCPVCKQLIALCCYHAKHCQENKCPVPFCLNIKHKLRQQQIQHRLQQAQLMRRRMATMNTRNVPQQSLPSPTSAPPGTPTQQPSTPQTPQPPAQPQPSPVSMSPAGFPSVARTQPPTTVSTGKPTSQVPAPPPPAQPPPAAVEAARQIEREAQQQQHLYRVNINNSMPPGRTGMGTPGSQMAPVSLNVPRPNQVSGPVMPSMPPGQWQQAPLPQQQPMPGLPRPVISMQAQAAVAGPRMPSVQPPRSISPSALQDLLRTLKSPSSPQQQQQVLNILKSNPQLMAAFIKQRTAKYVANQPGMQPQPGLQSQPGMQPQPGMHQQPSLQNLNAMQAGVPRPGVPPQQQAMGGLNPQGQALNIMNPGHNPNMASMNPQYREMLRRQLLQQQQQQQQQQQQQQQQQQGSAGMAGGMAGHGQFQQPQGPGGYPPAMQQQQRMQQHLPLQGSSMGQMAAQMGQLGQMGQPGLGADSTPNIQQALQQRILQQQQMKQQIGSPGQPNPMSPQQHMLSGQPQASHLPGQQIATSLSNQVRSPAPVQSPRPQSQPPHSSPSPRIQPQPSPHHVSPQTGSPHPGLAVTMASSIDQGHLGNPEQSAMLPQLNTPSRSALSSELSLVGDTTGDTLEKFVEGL

Compound	pIC50 (CBP)	pIC50 (MYC)
CNC(=O)c1cn(C)c2c(C(C)C)cc(N3CCCc4cc(-c5cnn(C)c5)c(C(F)F)cc43)cc12 [Example 108, 5-(7-(difluoromethyl)-6-(1-methyl-1H-pyrazol-4-yl)-3,4-dihydroquinolin-1(2H)-yl)-7-isopropyl-N,1-dimethyl-1H-indole-3-carboxamide]	7.51	6.63
CC(=O)N1CCOc2ccc(N3CCCc4cc(-c5cnn(C)c5)c(C(F)F)cc43)cc2C1 [Example 112, 1-(7-(7-(difluoromethyl)-6-(1-methyl-1H-pyrazol-4-yl)-3,4-dihydroquinolin-1(2H)-yl)-2,3-dihydrobenzo[f][1,4]oxazepin-4(5H)-yl)ethanone]	7.49	5.68
CNC(=O)N1CCOc2ccc(N3CCCc4cc(-c5cnn(C)c5)c(C(F)F)cc43)cc2C1 [Example 113, 7-(7-(difluoromethyl)-6-(1-methyl-1H-pyrazol-4-yl)-3,4-dihydroquinolin-1(2H)-yl)-N-methyl-2,3-dihydrobenzo[f][1,4]oxazepine-4(5H)-carboxamide]	7.85	6.80
CNC(=O)c1ccc2cccc(N3CCCc4cc(-c5cnn(C)c5)c(C(F)F)cc43)c2n1 [Example 120, 7-(difluoromethyl)-N-methyl-6-(1-methyl-1H-pyrazol-4-yl)-3,4-dihydro-2H-[1,8′-biquinoline]-2′-carboxamide]	8.22	6.20
CNC(=O)Nc1cc(OC)cc(N2CCCc3cc(-c4cnn(C)c4)c(C(F)F)cc32)n1 [Example 123, 1-(6-(7-(difluoromethyl)-6-(1-methyl-1H-pyrazol-4-yl)-3,4-dihydroquinolin-1(2H)-yl)-4-methoxypyridin-2-yl)-3-methylurea]	6.94	5.47
